Measurements: patent US9750738B2, “Arylpiperazine opioid receptor antagonists” (RESEARCH TRIANGLE INSTITUTE, priority 2010, dated 2017)

How the values were obtained:
[1] = target: T1, cloned human μ opioid receptor (Homo sapiens, UniProt P35372); test: Inhibition of DAMGO-stimulated [35S]GTPγS binding; assay type: biochemical; conditions: antagonism of agonist DAMGO; for Kb: read-out: μ, DAMGO Ke
T1 construct: expressed in transfected cells

[2] = target: T2, cloned human δ opioid receptor (Homo sapiens, UniProt P41143); test: Inhibition of DPDPE-stimulated [35S]GTPγS binding; assay type: biochemical; conditions: antagonism of agonist DPDPE; for Kb: read-out: δ, DPDPE Ke
T2 construct: expressed in transfected cells

[3] = target: T3, cloned human κ opioid receptor (Homo sapiens, UniProt P41145); test: Inhibition of U69,593-stimulated [35S]GTPγS binding; assay type: biochemical; conditions: antagonism of agonist U69,593, [35S]GTPγS binding; for Kb: read-out: κ, U69,593 ke
T3 construct: expressed in transfected cells
T3 sequence (P41145 whole entry): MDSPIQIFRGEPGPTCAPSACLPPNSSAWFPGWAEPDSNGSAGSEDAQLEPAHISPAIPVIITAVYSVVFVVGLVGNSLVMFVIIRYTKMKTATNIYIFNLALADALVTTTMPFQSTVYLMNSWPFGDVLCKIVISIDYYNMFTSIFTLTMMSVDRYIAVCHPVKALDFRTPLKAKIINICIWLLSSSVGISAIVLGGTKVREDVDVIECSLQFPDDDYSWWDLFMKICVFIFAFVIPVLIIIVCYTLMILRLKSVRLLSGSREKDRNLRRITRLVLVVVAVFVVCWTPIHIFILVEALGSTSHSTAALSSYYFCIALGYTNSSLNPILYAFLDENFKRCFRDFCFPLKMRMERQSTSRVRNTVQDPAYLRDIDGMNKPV

T2 sequence (P41143 whole entry): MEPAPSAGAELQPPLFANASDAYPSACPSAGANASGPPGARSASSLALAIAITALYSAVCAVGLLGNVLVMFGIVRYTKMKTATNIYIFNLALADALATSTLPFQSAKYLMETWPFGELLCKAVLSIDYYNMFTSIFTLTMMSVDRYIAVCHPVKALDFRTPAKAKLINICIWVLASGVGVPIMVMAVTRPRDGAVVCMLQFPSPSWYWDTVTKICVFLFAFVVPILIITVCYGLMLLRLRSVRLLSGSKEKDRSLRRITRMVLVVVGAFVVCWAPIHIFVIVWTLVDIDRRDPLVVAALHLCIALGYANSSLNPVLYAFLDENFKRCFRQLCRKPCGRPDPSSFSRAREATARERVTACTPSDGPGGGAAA
T1 sequence (P35372 whole entry): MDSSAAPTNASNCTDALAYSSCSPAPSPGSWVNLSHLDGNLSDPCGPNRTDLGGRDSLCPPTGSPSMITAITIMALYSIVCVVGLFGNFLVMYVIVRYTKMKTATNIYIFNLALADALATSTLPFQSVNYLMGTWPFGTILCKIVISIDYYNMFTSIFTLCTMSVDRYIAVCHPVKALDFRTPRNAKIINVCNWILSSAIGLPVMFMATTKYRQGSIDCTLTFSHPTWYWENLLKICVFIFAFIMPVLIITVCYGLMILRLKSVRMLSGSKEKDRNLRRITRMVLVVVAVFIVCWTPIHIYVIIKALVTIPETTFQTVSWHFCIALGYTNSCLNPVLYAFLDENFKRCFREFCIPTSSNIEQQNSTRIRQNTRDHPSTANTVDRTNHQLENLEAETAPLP

Row | Structure (SMILES) | Kb [1] [nM] | Kb [2] [nM] | Kb [3] [nM] | other results
1 | CCC1CN(CCCc2ccccc2)CCN1c1cccc(O)c1.Cl.Cl (stereo not shown) |  |  |  | melting point: 161 to 166 °C
2 | C[C@H]1CN(C)CC[C@@]1(C)c1cccc(O)c1 [Compound 2b, reference compound] |  |  |  | μ, DAMGO Ke [1]: 29 ± 3 nM; δ, DPDPE Ke [2]: 680 ± 240 nM; κ, U69,593 ke [3]: 155 ± 24 nM
3 | CC1CN(CCCc2ccccc2)CCC1(C)c1cccc(O)c1 (stereo not shown) [Compound 2c, N-phenylpropyl 3,4-dimethyl-4-(3-hydroxyphenyl)piperidine, reference compound] | 0.1 ± 0.02 | 0.9 ± 0.3 | 0.88 ± 0.2 | 
4 | Oc1cccc(N2CCN(CCCc3ccccc3)CC2)c1 [Compound 5a, 3-(4-Phenylpropylpiperazin-1-yl)phenol] | 8.5 ± 1.4 | 34 ± 6 | 15 ± 3 | 
5 | C[C@H]1CN(CCCc2ccccc2)CCN1c1cccc(O)c1 [Compound 5b, (S)-3-(2-Methyl-4-phenylpropylpiperazin-1-yl)phenol] | 0.88 | 13.4 | 4.09 | 
6 | C[C@@H]1CN(CCCc2ccccc2)CCN1c1cccc(O)c1 [Compound 5c, (R)-3-(2-Methyl-4-phenylpropylpiperazin-1-yl)phenol] | 1 ± 0.2 | 7 ± 2 | 1.5 ± 0.4 | 
7 | CC1CN(CCCc2ccccc2)CC(C)N1c1cccc(O)c1 (stereo not shown) [Compound 5d, (Z)-3-(2,6-Dimethyl-4-(3-phenylpropyl)piperazin-1-yl)phenol] |  | 4300 | 3 | 
8 | C[C@H]1CN(c2cccc(O)c2)[C@@H](C)CN1CCCc1ccccc1 [Compound 5e, 3-[(2S,5S)-2,5-Dimethyl-4-(3-phenylpropyl)piperazin-1-yl]phenol] |  |  | 7 ± 0.3 | 
9 | C[C@H]1CN(C)CCN1c1cccc(O)c1 [Compound 5f, (S)-3-(2,4-Dimethylpiperazin-1-yl)phenol] | 508 ± 26 |  | 193 ± 19 | 
10 | C[C@@H]1CN(c2cccc(O)c2)[C@@H](C)CN1CCCc1ccccc1 [Compound 5g, 3-((2S,5R)-2,5-Dimethyl-4-(3-phenylpropyl)piperazin-1-yl)phenol] | 6.1 ± 1.7 | 55 ± 3 | 4.2 ± 0.8 | 
11 | C[C@@H]1CN(CCCc2ccccc2)[C@@H](C)CN1c1cccc(O)c1 [Compound 5h, 3-((2R,5S)-2,5-Dimethyl-4-(3-phenylpropyl)piperazin-1-yl)phenol] | 18 ± 4 | 179 ± 68 | 26 ± 7 | 
12 | CC(C)[C@H](N)CN1CCN(c2cccc(O)c2)[C@@H](C)C1 [Compound 5i, 3-{(2S)-4-[(2S)-2-Amino-3-methylbutyl]-2-methylpiperazin-1-yl}phenol] | 2 | 55 | 10 | 
13 | CC(C)[C@@H](CN1CCN(c2cccc(O)c2)[C@@H](C)C1)NC(=O)[C@H]1Cc2ccc(O)cc2CN1 [Compound 5j, (3R)-7-Hydroxy-N-[(1S)-1-{[(3S)-4-(3-hydroxyphenyl)-3-methylpiperazin-1-yl]methyl}-2-methylpropyl]-1,2,3,4-tetrahydroisoquinoline-3-carboxamide] | 22 ± 4 | 274 ± 48 | 2.7 ± 0.1 | 
14 | C[C@@H](N)CN1CCN(c2cccc(O)c2)[C@@H](C)C1 [Compound 31b, 3-{(2S)-4-[(2R)-2-amino-propyl]-2-methylpiperazin-1-yl}phenol] |  |  |  | melting point: 210 to 215 °C
